From ChEMBL document CHEMBL4219204, “Structure-based design and discovery of potent and selective KDM5 inhibitors” (Bioorg Med Chem Lett, 2018)

Legend:
[1] = target: Lysine-specific demethylase 5A (Homo sapiens, UniProt P29375); test: Inhibition of KDM5A (unknown origin) preincubated with enzyme
[2] = target: Lysine-specific demethylase 5B (Homo sapiens, UniProt Q9UGL1); test: Inhibition of KDM5B (unknown origin) preincubated with enzyme
[3] = target: T1, Lysine-specific demethylase 4A (Homo sapiens, UniProt O75164); test: Inhibition of KDM4A (unknown origin)
T1 sequence (O75164 whole entry): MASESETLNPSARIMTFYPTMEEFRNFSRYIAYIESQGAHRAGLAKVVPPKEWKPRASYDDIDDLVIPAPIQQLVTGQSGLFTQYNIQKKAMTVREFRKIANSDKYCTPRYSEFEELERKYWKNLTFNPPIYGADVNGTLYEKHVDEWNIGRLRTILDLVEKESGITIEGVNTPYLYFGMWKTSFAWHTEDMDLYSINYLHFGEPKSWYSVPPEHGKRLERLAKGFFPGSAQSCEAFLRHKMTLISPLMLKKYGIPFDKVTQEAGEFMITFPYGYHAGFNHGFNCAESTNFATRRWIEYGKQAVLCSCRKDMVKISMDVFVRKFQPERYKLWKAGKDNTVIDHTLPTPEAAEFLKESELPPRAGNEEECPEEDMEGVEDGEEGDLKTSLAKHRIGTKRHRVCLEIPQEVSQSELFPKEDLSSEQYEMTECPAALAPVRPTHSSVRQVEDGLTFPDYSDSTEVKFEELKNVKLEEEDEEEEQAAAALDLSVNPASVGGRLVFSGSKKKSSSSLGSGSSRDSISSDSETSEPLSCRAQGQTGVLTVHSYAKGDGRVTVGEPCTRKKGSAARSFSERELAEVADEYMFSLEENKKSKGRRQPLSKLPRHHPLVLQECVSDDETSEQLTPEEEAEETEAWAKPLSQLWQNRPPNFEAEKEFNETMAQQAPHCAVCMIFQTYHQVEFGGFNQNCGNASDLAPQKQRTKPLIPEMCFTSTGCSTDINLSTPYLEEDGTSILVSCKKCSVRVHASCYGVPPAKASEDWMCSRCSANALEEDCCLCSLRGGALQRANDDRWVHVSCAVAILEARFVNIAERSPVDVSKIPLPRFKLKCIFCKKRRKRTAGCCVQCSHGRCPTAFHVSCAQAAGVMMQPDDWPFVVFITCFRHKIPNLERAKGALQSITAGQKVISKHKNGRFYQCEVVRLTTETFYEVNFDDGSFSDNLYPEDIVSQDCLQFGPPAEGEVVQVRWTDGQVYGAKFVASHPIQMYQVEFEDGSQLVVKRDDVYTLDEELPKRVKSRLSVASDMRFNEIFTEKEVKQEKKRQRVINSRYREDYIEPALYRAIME

[4] = target: T2, Lysine-specific demethylase 4E (Homo sapiens, UniProt B2RXH2); test: Inhibition of KDM4E (unknown origin)
T2 sequence (B2RXH2 whole entry): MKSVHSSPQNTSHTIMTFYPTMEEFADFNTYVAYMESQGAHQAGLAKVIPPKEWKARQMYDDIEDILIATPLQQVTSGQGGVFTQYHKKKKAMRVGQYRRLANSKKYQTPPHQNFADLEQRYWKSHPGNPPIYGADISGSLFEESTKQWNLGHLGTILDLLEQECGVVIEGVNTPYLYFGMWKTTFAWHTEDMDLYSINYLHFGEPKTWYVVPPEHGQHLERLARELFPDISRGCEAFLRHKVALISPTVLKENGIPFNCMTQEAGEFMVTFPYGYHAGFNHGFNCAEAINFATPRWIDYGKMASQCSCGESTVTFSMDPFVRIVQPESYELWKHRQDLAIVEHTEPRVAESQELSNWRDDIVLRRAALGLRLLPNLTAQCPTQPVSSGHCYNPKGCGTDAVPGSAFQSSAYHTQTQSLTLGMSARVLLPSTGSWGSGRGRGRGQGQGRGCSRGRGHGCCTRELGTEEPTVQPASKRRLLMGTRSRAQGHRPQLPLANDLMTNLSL

[5] = target: Lysine-specific demethylase 6B (Homo sapiens, UniProt O15054); test: Inhibition of KDM6B (unknown origin)
Lysine-specific demethylase 6B, sequence (O15054 whole entry): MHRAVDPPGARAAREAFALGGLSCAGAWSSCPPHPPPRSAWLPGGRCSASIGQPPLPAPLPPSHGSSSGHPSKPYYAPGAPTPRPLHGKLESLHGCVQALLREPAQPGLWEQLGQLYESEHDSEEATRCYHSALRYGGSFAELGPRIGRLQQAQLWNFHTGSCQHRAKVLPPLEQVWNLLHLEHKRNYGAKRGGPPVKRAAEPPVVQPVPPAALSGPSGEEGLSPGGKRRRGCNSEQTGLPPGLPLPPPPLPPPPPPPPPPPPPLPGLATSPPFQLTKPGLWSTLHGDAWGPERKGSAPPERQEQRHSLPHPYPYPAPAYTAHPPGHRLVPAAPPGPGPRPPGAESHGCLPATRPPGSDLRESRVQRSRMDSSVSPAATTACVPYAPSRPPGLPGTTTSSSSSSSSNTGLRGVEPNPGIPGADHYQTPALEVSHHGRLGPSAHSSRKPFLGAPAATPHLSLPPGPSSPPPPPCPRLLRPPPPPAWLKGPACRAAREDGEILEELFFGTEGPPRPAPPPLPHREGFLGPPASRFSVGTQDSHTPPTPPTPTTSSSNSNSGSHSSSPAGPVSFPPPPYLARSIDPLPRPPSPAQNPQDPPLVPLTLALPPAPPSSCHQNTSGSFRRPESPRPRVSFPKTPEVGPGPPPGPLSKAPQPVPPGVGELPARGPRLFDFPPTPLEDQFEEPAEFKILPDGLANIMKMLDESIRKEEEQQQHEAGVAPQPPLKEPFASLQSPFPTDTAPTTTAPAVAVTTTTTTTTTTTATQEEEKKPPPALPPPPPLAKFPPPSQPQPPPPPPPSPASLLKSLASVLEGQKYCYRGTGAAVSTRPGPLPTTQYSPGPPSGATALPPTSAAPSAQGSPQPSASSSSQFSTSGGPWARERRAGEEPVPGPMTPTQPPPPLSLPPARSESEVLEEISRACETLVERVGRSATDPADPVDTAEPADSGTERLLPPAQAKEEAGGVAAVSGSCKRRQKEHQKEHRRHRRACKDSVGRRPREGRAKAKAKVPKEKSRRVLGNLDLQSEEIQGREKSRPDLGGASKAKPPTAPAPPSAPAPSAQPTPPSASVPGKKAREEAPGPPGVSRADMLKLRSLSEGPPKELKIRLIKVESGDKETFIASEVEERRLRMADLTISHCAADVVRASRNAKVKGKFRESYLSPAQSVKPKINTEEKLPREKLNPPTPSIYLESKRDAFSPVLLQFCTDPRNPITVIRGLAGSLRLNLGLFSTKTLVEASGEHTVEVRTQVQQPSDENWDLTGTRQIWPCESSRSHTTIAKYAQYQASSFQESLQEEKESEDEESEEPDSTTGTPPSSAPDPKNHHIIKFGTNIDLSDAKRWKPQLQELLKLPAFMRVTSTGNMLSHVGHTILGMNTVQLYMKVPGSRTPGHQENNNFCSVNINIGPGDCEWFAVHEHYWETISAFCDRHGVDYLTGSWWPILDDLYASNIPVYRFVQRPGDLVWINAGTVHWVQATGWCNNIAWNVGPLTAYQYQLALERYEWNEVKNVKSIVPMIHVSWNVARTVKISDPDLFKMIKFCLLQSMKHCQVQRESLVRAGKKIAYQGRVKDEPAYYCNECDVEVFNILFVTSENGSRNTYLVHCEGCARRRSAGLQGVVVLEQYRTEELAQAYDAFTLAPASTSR

[6] = Clearance in CD-1 mouse at 5 mg/kg, iv; type: ADME, organism-based; details: in vivo
[7] = Volume of distribution in CD-1 mouse at 5 mg/kg, iv; type: ADME, organism-based; details: in vivo
[8] = AUC in CD-1 mouse at 10 mg/kg, po; type: ADME, organism-based; details: in vivo
[9] = Oral bioavailability in CD-1 mouse at 10 mg/kg; type: ADME, organism-based; details: in vivo
[10] = Protein binding in mouse plasma; type: ADME, cell-free; details: read-out: PPB (converted)
[11] = Inhibition of CYP450 (unknown origin); type: ADME; details: human
[12] = Kinetic solubility of the compound; type: physicochemical
[13] = tested on: Mus musculus; test: In vivo inhibition of KDM5 in nude mouse xenografted with human MCF7 cells assessed as increase in H3K4me3 level in tumor at 75 mg/kg, po qd for 5 days measured at 0.5 hrs post last dose by Western blot analysis relative to control; type: functional
[14] = Drug uptake in tumor of nude mouse xenografted with human MCF7 cells at 75 mg/kg, po qd for 5 days measured at 1 hr post last dose; type: ADME, organism-based, Neoplasm; details: in vivo

Lysine-specific demethylase 5A, sequence (P29375 whole entry): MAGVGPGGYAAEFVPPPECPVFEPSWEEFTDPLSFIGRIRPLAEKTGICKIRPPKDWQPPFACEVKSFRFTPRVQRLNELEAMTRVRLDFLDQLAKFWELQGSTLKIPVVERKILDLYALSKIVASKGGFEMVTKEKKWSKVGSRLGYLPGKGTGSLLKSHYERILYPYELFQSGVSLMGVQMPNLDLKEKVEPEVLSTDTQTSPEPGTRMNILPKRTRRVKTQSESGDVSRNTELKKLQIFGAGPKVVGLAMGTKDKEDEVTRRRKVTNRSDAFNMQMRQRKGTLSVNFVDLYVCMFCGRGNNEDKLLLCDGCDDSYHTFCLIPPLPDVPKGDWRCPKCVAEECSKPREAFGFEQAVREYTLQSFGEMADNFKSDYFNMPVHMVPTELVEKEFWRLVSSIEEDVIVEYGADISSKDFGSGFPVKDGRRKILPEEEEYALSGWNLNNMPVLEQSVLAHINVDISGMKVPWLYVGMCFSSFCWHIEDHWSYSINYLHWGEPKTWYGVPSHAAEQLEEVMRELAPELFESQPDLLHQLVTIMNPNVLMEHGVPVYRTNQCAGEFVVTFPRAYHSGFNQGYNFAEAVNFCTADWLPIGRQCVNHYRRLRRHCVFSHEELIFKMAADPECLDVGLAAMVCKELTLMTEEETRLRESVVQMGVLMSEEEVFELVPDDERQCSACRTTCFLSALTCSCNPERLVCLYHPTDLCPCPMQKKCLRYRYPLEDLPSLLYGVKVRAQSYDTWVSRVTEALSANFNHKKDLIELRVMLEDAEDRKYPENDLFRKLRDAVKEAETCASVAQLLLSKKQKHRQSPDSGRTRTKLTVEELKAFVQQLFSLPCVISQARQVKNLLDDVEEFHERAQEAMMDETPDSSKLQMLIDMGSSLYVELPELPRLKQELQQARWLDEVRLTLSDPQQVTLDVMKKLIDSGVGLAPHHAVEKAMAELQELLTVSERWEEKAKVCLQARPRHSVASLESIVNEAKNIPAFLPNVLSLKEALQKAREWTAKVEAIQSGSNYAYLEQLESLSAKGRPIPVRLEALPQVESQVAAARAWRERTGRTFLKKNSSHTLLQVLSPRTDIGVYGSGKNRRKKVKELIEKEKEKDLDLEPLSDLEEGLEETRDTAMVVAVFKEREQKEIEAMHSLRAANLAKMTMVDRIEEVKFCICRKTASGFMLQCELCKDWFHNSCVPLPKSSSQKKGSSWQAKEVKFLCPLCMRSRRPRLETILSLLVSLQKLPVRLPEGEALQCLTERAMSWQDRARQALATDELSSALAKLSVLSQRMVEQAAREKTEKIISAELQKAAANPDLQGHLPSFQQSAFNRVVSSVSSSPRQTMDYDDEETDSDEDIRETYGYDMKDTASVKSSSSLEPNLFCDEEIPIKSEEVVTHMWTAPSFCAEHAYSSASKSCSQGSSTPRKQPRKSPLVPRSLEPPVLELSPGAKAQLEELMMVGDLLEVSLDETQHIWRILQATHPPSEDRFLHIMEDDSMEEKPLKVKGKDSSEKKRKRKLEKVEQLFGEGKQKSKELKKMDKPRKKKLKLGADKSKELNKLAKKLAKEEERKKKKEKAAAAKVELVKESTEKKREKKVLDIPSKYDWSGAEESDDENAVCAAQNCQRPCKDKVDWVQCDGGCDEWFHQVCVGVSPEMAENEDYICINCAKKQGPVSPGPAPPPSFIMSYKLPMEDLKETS
Lysine-specific demethylase 5B, sequence (Q9UGL1 whole entry): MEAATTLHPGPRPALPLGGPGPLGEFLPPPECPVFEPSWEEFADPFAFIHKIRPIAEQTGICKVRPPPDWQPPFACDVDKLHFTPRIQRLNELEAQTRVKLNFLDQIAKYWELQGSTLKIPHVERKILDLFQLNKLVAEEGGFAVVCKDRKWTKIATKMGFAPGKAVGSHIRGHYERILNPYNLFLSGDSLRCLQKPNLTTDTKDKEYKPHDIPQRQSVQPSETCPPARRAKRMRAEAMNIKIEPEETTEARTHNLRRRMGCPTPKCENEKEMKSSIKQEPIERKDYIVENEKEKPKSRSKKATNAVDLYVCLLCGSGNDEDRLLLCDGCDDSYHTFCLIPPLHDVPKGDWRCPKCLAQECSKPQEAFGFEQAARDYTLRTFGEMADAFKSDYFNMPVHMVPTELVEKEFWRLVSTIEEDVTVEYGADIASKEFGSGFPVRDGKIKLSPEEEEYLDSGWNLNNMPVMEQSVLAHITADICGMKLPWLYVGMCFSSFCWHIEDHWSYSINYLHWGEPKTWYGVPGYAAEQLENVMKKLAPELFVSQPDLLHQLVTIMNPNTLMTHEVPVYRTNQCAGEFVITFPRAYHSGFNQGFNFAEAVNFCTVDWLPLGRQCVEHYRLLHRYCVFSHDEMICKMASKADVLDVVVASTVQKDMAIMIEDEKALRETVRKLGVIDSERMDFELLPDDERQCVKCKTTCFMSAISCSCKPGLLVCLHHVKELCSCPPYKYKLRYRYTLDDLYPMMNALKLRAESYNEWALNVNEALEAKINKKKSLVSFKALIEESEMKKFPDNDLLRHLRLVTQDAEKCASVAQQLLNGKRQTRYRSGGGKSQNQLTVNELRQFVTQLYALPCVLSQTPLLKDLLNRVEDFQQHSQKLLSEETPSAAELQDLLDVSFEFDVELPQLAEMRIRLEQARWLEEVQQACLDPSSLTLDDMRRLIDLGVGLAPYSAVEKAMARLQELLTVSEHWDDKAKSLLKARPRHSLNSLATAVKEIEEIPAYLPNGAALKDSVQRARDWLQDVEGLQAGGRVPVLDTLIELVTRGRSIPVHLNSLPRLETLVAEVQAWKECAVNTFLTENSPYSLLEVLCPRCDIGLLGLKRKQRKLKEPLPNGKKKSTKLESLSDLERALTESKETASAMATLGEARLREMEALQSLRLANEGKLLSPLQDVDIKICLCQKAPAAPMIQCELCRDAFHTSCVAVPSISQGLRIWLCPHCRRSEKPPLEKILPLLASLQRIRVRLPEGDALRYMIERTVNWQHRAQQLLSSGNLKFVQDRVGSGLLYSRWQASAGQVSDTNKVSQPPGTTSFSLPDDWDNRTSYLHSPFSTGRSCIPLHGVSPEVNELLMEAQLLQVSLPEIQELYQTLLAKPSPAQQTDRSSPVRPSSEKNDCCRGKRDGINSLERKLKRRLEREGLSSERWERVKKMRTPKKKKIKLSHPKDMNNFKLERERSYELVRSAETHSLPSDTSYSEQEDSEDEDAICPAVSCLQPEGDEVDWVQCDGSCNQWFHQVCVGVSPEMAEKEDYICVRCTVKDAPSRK

In the case of `Cc1cc(Cl)ccc1COc1ccnn1-c1cc(C(=O)O)ccn1`, the IC50 [1] is reported as 0.013 µM, the IC50 [2] is reported as 0.002 µM and the IC50 [3] is reported as 0.099 µM. The IC50 [4] was 0.16 µM, the IC50 [5] was 2.3 µM and the clearance [6] was 2.1 mL/min/kg. It also gave a Vd [7] of 0.16 L/kg, an AUC [8] of 44000 ng·h/mL and a bioavailability [9] of 55%. The fraction unbound [10] was 0.009, the “inhibition (INH)” value [11] was “Not Active” and the Kinetic_solubility [12] was “Soluble”. For the same molecule, the “fold change (FC)” value [13] was greater than 2 and the Drug uptake [14] was “Active”.
